{"source": "patent US20160129005A1", "about": "“ADENINE DERIVATIVES HAVING IMMUNOMODULATING ANTI-INFLAMMATORY AND ANALGESIC ACTIVITY” (MEDESTEA RESEARCH & PRODUCTION S.p.A., priority 2011, published 2016)", "key": {"[1]": {"test_system": "lymphopenic mice with deletion of cd3ε", "test": "Chronic intestinal inflammation by transfer of naive CD4 cells", "assay_type": "in vivo, mouse", "excerpt": "To study the effect of […] in idiopathic inflammatory diseases of the intestine, such as Crohn's disease and ulcerative colitis, we used lymphopenic mice with deletion of cd3ε. T lymphocytes are not present in these animals, and transfer of naive CD4 cells causes chronic intestinal inflammation. The simultaneous transfer of regulatory T cells (Treg) CD4^+CD25^+ […] the onset of the disease. […] Compared to mice reconstituted with naive CD4 and Treg cells (healthy controls), mice reconstituted with naive CD4 cells and treated with carriers show a severe oedematous-haemorrhagic picture of the colon with splenomegaly and lymphadenomegaly. […] The accumulation of Alcian-positive mucus filaments is visible inside the lumen of the cryptae (arrowheads). In the mice injected with CD4 cells and treated with carriers, muciparous goblet cells have completely disappeared along the cryptae. The cryptae are markedly hyperplasic with intensive cellular crowding, stratification, obliteration of the lumen (arrowheads), and a high frequency of mitotic cells is encountered (arrows). […] The cryptae are moderately hyperplasic and mucus filaments can be seen inside the lumen of the cryptae (arrowheads)."}, "male Wistar rats": {"test_system": "male Wistar rats", "test": "Carrageenan-induced acute inflammation of plantar pads", "assay_type": "in vivo, rat", "description": "The role of […] was investigated by inducing inflammation of the plantar pads of rats with carrageenan, a model that mimics the state of acute inflammation in humans.\nInflammation was induced in male Wistar rats by means of injection of 0.1 ml of carrageenan at 1% in sterile saline solution in the rats' right plantar pad. Peak inflammation occurs 3 hours after injection of carrageenan; at this point (t=0), the rats are treated with […] or diclofenac or indometacin (100 μM in 0.15 ml); the antinociceptive effect of the drugs was measured at 1, 3, 6, 12 and 24 hours after their administration."}, "[2]": {"test_system": "diabetic C57BL/6 mice transplanted with BALB/c islets", "test": "Survival of allogenic pancreatic islets in murine transplant model", "assay_type": "in vivo, mouse", "details": "9 mg/kg or 30 mg/kg i.p. daily; FIG. 24", "description": "C57BL/6 mice were made diabetic by administration of streptozotocin (170 mg/kg) and, following transplant of allogenic pancreatic islets, were treated with […].\nThe pancreatic islets, isolated from the BALB/c mouse, were inoculated in the diabetic mouse according to the procedure described by Abde R et al. (Diabetes 51 (8): 2489-2495). The glycaemia values were measured daily for monitoring the functionality of the transplanted cells.\nThe significance of rejection of transplanted cells that occurred was attributed to glycaemia values above 250 mg/dl, obtained in two consecutive measurements. After the cells were implanted (day 0), the mice were treated with intraperitoneal injections of 9 mg/kg or 30 mg/kg of […] daily.\nThe combination of […] and Rapamycin, currently the most used of the immunosuppressive drugs, was tested on the same animal model.\nBoth drugs were administered 6 times (day 0, day 2, day 4, day 6, day 8, day 10); […] was administered at 2 doses."}, "female NOD mice": {"test_system": "female NOD mice", "test": "Type 1 diabetes spontaneous model", "assay_type": "in vivo, mouse", "details": "0.25 mg intravenously 5 days every two weeks from 11 weeks of age; at the 28th week; carriers 7 out of 14", "excerpt": "NOD (“non-obese diabetic”) mice represent the spontaneous murine model of type 1 diabetes (Adorini et al., 2002). The loss of metabolic control characterized by hyperglycaemia and glycosuria, which defines the disease clinically, is preceded by a long phase called pre-diabetes, during which the response to specific autoantigens of the beta cells of the pancreas develops subclinically, but progressively. In the NOD mice, the disease begins clinically around the 14th week of age when the infiltrating inflammatory cells invade the islets and develop an aggressive insulitis, which leads to destruction of the beta cells and causes hyperglycaemia (Anderson and Bluestone, 2005). The autoreactive CD4+ and CD8+ T cells play a fundamental role in the pathogenesis of type 1 diabetes.\nWe treated female NOD mice at 11 weeks of age with 0.25 mg […] or carriers intravenously for 5 days every two weeks and monitored glycaemia every week. Only one out of 8 mice treated with […] developed diabetes at the 28th week of age, whereas 7 out of 14 mice treated with carriers developed diabetes or died starting from the 14th week of age (FIG. 32)."}, "Sprague-Dawley (SD) rats": {"test_system": "Sprague-Dawley (SD) rats", "test": "Renal ischaemia/reperfusion injury", "assay_type": "in vivo, rat", "excerpt": "Ischaemia is an acute pathologic event in which there is reduction in blood supply with resultant injury or dysfunction of the affected tissue. Currently, the obstructed blood vessel is cleared by direct intervention. The resumption of normal circulation after a period of hypoxia causes quite considerable tissue injury, however, with fibrotic results that undermine the functionality of the affected organ. […] We wanted to check whether […] could reduce the injury due to reperfusion and to do so we used a model of renal ischaemia. The model envisages creation of an ischaemic event and then verification of the injury following treatment with […] or with the vehicle.\nThe experiment was conducted on Sprague-Dawley (SD) rats of 250-300 g divided into three groups. The first group, the […], only underwent an incision, which was kept open for 30 minutes, without ischaemic injury. The other two were pretreated, 30 minutes before undergoing the intervention, with intraperitoneal administration of vehicle (group 2) or of […] (group 3) 10 mg/kg. […]\nThe kidneys were sectioned for histologic analysis in double-blind conditions. The percentages of the tissue changes observed were counted using a 5-point semiquantitative scale, defined for assessing necrosis and cellular loss: 0=normal kidney; 0.5=<10%; 1=10-25%; 2=25-50%; 3=50-75%; 4=75-100%."}, "dendritic cells (DCs)": {"test_system": "dendritic cells (DCs)", "test": "Maturation of dendritic cells (flow cytometry of membrane antigens)", "assay_type": "cell-based", "description": "The effect of […] on the various stages of maturation of the DCs was evaluated. The study was carried out using flow cytometry by analysing the principal membrane antigens characterizing the stage of differentiation and maturation of the DCs.\nThe DCs were obtained from peripheral whole blood and were plated in a suitable medium (DC medium). The immature DCs (DCi) on day 6 of culture were collected, analysed in the cytofluorimeter and were brought to maturation by stimulation with LPS 10 μg/ml overnight (O.N.). […] 300 μM was added to DC medium during the last 5 hours or simultaneously with maturation of the DCi with LPS (10 μg/ml) overnight. CD1a is a marker of immaturity specific to the DCs, expression of which decreases in mature DCs.\nCD80 and CD86 are fundamental co-stimulatory molecules in the process of antigen presentation, and expression of them generally increases in mature DCs compared to immature DCs."}}}
{"smiles": "C=C(C=O)OC(C=O)n1cnc2c(N)ncnc21", "note": "(stereo not shown) [2-[1-(6-aminopurin-9-yl)-2-oxoethoxy]prop-2-enal]", "values": [{"measurement": "colon sections stained with Alcian-PAS", "setting": "[1]; mice injected with CD4 cells", "value": "muciparous goblet cells positive to Alcian-PAS are identifiable along the cryptae"}, {"measurement": "macroscopic appearance of colon, spleen and lymph nodes", "setting": "[1]; treatment two weeks after injection of naive CD4 cells, FIG. 31", "value": "dramatic improvement of the inflammation of the colon"}, {"measurement": "histological scores (0-4, Asseman)", "setting": "[1]; vs carriers, no significant difference to healthy control", "value": "significant improvement of the lesions"}, {"measurement": "macrophages infiltrating the plantar pad (immunohistochemistry)", "setting": "male Wistar rats; biopsies from plantar pads", "value": "significantly reduces the presence of macrophages"}, {"measurement": "effect on thermal hyperalgesia compared with diclofenac or indometacin", "setting": "male Wistar rats; single dose 6 mg/kg", "value": "greater than the effect produced by diclofenac or indometacin"}, {"measurement": "thermal hyperalgesia in the plantar pads", "setting": "male Wistar rats; single dose 6 mg/kg, local and intravenous, for 24 hours", "value": "significantly reduces thermal hyperalgesia"}, {"measurement": "rejection of transplanted islets (glycaemia above 250 mg/dl twice)", "setting": "[2]", "value": "no rejection up to day 100"}, {"measurement": "mice that developed diabetes", "setting": "female NOD mice", "value": "one out of 8"}, {"measurement": "renal injury (histological damage score and organ functionality)", "setting": "Sprague-Dawley (SD) rats; 10 mg/kg i.p., FIG. 6", "value": "largely prevents renal injury"}, {"measurement": "plasma creatinine levels", "setting": "Sprague-Dawley (SD) rats; group 3, 10 mg/kg i.p. 30 minutes before ischaemia, 24 hours, group 1 = sham, FIG. 5", "value": "values much closer to those of group 1"}, {"measurement": "modulation of CD40 (negative regulation)", "setting": "dendritic cells (DCs); 300 μM", "value": "less marked"}, {"measurement": "modulation of CD54 (negative regulation)", "setting": "dendritic cells (DCs); 300 μM", "value": "less marked"}, {"measurement": "class I histocompatibility antigen", "setting": "dendritic cells (DCs); 300 μM, both overnight and at 5 hours", "value": "decreases"}, {"measurement": "CD80 expression", "setting": "dendritic cells (DCs); DCs matured with LPS, 300 μM", "value": "no effects on CD80"}, {"measurement": "CD86 expression", "setting": "dendritic cells (DCs); DCs matured with LPS, 300 μM", "value": "negative regulation of CD86"}, {"measurement": "CD1a expression (marker of immaturity)", "setting": "dendritic cells (DCs); DCs matured with LPS, IMMUFLAM 300 μM at 5 hrs, vs LPS alone", "value": "shown to increase"}]}
